These results are taken from patent US9273057B2 (Bristol-Myers Squibb Company, priority 2012, dated 2016).

CK2A1 (CK2α/β), sequence (P68400 whole entry, species assumed): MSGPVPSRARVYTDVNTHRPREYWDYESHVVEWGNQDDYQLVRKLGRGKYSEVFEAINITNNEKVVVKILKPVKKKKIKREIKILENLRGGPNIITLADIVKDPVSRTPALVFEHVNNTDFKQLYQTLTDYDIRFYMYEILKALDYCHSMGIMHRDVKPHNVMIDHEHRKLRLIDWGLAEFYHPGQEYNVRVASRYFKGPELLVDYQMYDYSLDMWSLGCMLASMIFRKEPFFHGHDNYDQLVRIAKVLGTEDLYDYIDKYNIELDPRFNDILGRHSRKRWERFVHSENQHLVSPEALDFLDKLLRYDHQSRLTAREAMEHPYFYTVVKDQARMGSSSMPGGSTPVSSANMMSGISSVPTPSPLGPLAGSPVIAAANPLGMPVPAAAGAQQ
CK2A1 (CK2α/β), sequence (P67870 whole entry partner, species assumed): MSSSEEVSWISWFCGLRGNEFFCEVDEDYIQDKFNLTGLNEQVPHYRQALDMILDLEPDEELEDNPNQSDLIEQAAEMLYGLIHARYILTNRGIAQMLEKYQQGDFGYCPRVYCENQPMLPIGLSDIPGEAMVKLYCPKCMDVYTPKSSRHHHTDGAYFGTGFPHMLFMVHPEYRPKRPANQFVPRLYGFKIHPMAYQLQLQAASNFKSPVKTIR

The assay concerns the target CK2A1 (CK2α/β) (Homo sapiens, UniProt P68400). Nature of the assay: CK2 kinase assay, CK2A1 (CK2α/β). Type of assay: biochemical. The settings on record: Table A; read-out: CK2A1 (CK2α/β) (IC50).
With `N#Cc1cc(Nc2nc(NC3CC3)c3ncc(C#N)n3n2)c(Cl)c(N2CCN(C(=O)CCCS(N)(=O)=O)CC2)c1` [Example 93, 4-(4-(2-chloro-5-cyano-3-((7-cyano-4-(cyclopropylamino)imidazo[2,1-f][1,2,4]triazin-2-yl)amino)phenyl)-1-piperazinyl)-4-oxo-1-butanesulfonamide], the IC50 stood at 0.46 nM.

As for `N#Cc1cc(Nc2nc(NC3CC3)c3ncc(C#N)n3n2)c(Cl)c(N2CCN(C(=O)CC3CCOCC3)CC2)c1` [Example 95, 2-((2-chloro-5-cyano-3-(4-(tetrahydro-2H-pyran-4-ylacetyl)-1-piperazinyl)phenyl)amino)-4-(cyclopropylamino) imidazo[2,1-f][1,2,4] triazine-7-carbonitrile], the IC50 was found to be 0.92 nM. On to `N#Cc1cc(Nc2nc(NC3CC3)c3ncc(C#N)n3n2)c(Cl)c(N2CCN(C(=O)CCCn3ccnc3)CC2)c1` [Example 96, 2-((2-chloro-5-cyano-3-(4-(4-(1H-imidazol-1-yl)butanoyl)-1-piperazinyl)phenyl)amino)-4-(cyclopropylamino) imidazo[2,1-f][1,2,4] triazine-7-carbonilrile], for which the IC50 stood at 0.63 nM. Turning to `N#Cc1cc(Nc2nc(NC3CC3)c3ncc(C#N)n3n2)c(Cl)c(N2CCN(C(=O)Cn3ccnc3)CC2)c1` [Example 97, 2-((2-chloro-5-cyano-3-(4-(1H-imidazol-1-ylacetyl)-1-piperazinyl)phenyl)amino)-4-(cyclopropylamino) imidazo[2,1-f][1,2,4] triazine-7-carbonitrile], the IC50 was 0.53 nM. For the molecule `N#Cc1cc(Nc2nc(NC3CC3)c3ncc(C#N)n3n2)c(Cl)c(N2CCN(C(=O)CCn3ccnc3)CC2)c1` [Example 98], the IC50 was found to be 0.36 nM. As to `N#Cc1cc(Nc2nc(NC3CC3)c3ncc(C#N)n3n2)c(Cl)c(N2CCN(C(=O)Cc3nnn[nH]3)CC2)c1` [Example 99, 2-((2-chloro-5-cyano-3-(4-(1H-tetrazol-5-ylacetyl)-1-piperazinyl)phenyl)amino)-4-(cyclopropylamino) imidazo[2,1-f][1,2,4] triazine-7-carbonitrile], the IC50 came out at 0.32 nM.

Regarding `N#Cc1cc(Nc2nc(NC3CC3)c3ncc(C#N)n3n2)c(Cl)c(N2CCN(C(=O)CN3CCOCC3)CC2)c1` [Example 100, 2-((2-chloro-5-cyano-3-(4-(4-morpholinylacetyl)-1-piperazinyl)phenyl)amino)-4-(cyclopropylamino) imidazo[2,1-f][1,2,4] triazine-7-carbonitrile], the IC50 worked out at 0.55 nM.

For `CCNc1nc(Nc2cc(C#N)cc(N3CCN(C4CN(C(=O)OC)C4)CC3)c2Cl)nn2c(C#N)cnc12` [Example 101, methyl 3-(4-(2-chloro-5-cyano-3-((7-cyano-4-(ethylamino)imidazo [2,1-f][1,2,4]triazin-2-yl)amino)phenyl)-1-piperazinyl)-1-azetidinecarboxylate], the IC50 came to 1.27 nM. Take `N#Cc1cc(Nc2nc(NC3CC3)c3ncc(C#N)n3n2)c(Cl)c(N2CCN([C@H]3C[C@H](O)C3)CC2)c1` [Example 102, (+/−) 2-((2-chloro-5-cyano-3-(4-(trans-3-hydroxycyclobutyl)-1-piperazinyl)phenyl)amino)-4-(cyclopropylamino) imidazo[2,1-f][1,2,4] triazine-7-carbonitrile]: the IC50 came out at 1.1 nM. To `N#Cc1cc(Nc2nc(NC3CC3)c3ncc(C#N)n3n2)c(Cl)c(N2CCN(C3(C#N)COC3)CC2)c1` [Example 104, 2-((2-chloro-5-cyano-3-(4-(3-cyano-3-oxetanyl)-1-piperazinyl)phenyl)amino)-4-(cyclopropylamino) imidazo[2,1-f][1,2,4] triazine-7-carbonitrile] belongs 0.7 nM. Then `N#Cc1cc(Nc2nc(NC3CC3)c3ncc(C#N)n3n2)c(Cl)c(N2CCN(C3COC3)CC2)c1` [Example 105, 2-(2-chloro-5-cyano-3-(4-(oxetan-3-yl)piperazin-1-yl)phenylamino)-4-(cyclopropylamino) imidazo[1,2-f][1,2,4] triazine-7-carbonitrile], with 0.42 nM; and `N#Cc1cc(Nc2nc(NC3CC3)c3ncc(C#N)n3n2)c(Cl)c(N2CCN([C@H]3C[C@@H](C#N)C3)CC2)c1` [Example 106], with 1.23 nM; and `N#Cc1cc(Nc2nc(NC3CC3)c3ncc(C#N)n3n2)c(Cl)c(N2CCN([C@H]3C[C@H](C#N)C3)CC2)c1` [Example 107, 2-((2-chloro-5-cyano-3-(4-(trans-3-cyanocyclobutyl)-1-piperazinyl)phenyl)amino)-4-(cyclopropylamino) imidazo[2,1-f][1,2,4] triazine-7-carbonitrite], with 0.59 nM. As for `N#Cc1cc(Nc2nc(NC3CC3)c3ncc(C#N)n3n2)c(Cl)c(N2CCC(NC3COC3)CC2)c1` [Example 110, 2-((2-chloro-5-cyano-3-(4-(3-oxetanylamino)-1-piperidinyl)phenyl)amino)-4-(cyclopropylamino)imidazo [2,1-f][1,2,4]triazine-7-carbonitrile], the IC50 stood at 0.58 nM. Take `CC1(O)CN(C2CCN(c3cc(C#N)cc(Nc4nc(NC5CC5)c5ncc(C#N)n5n4)c3Cl)CC2)C1` [Example 111, 2-(2-chloro-5-cyano-3-(4-(3-hydroxy-3-methylazetidin-1-yl)piperidin-1-yl)phenylamino)-4-(cyclopropylamino)imidazo [1,2-f][1,2,4]triazine-7-carbonitrile]: the IC50 came out at 0.68 nM. As for `CCOC(=O)N1CCC(NC2CCN(c3cc(C#N)cc(Nc4nc(NC5CC5)c5ncc(C#N)n5n4)c3Cl)CC2)CC1` [Example 118, ethyl 4-((1-(2-chloro-5-cyano-3-((7-cyano-4-(cyclopropylamino)imidazo [2,1-f][1,2,4]triazin-2-yl)amino)phenyl)-4-piperidinyl)amino)-1-piperidinecarboxylate], the IC50 came out at 0.84 nM. `CN1C(C)(C)CC(NC2CCN(c3cc(C#N)cc(Nc4nc(NC5CC5)c5ncc(C#N)n5n4)c3Cl)CC2)CC1(C)C` [Example 124, 2-((2-chloro-5-cyano-3-(4-((1,2,2,6,6-pentamethyl-4-piperidinyl)amino)-1-piperidinyl)phenyl)amino)-4-(cyclopropylamino)imidazo [2,1-f][1,2,4]triazine-7-carbonitrile]: the IC50 came to 1.01 nM. For the molecule `N#Cc1cc(Nc2nc(NC3CC3)c3ncc(C#N)n3n2)c(Cl)c(N2CCC(NC3CCOCC3)CC2)c1` [Example 125, 2-((2-chloro-5-cyano-3-(4-(tetrahydro-2H-pyran-4-ylamino)-1-piperidinyl)phenyl)amino)-4-(cyclopropylamino)imidazo [2,1-f][1,2,4]triazine-7-carbonitrile], the IC50 came to 0.75 nM.

For the molecule `N#Cc1cc(Nc2nc(NC3CC3)c3ncc(C#N)n3n2)c(Cl)c(N2CCC(NC3CS(=O)(=O)C3)CC2)c1` [Example 129, 2-((2-chloro-5-cyano-3-(4-((1,1-dioxido-3-thietanyl)amino)-1-piperidinyl)phenyl)amino)-4-(cyclopropylamino)imidazo [2,1-f][1,2,4]triazine-7-carbonitrile], the IC50 turned out to be 5.13 nM. Take `N#Cc1cc(Nc2nc(NC3CC3)c3ncc(C#N)n3n2)c(Cl)c(N2CCC(NCC3CC3)CC2)c1` [Example 136, 2-((2-chloro-5-cyano-3-(4-((cyclopropylmethyl)amino)-1-piperidinyl)phenyl)amino)-4-(cyclopropylamino)imidazo [2,1-f][1,2,4]triazine-7-carbonitrile]: the IC50 amounted to 22 nM. For `CC(C)(O)[C@H](F)CNC1CCN(c2cc(C#N)cc(Nc3nc(NC4CC4)c4ncc(C#N)n4n3)c2Cl)CC1` [Example 137, 2-((2-chloro-5-cyano-3-(4-(((2R)-2-fluoro-3-hydroxy-3-methylbutyl)amino)-1-piperidinyI)phenyl)amino)-4-(cyclopropylamino)imidazo [2,1-f][1,2,4]triazine-7-carbonitrile], the IC50 was 3.06 nM. To `Cc1cc(CNC2CCN(c3cc(C#N)cc(Nc4nc(NC5CC5)c5ncc(C#N)n5n4)c3Cl)CC2)on1` [Example 140, 2-(2-chloro-5-cyano-3-(4-((3-methylisoxazol-5-yl)methylamino)piperidin-1-yl)phenylamino)-4-(cyclopropylamino)imidazo [1,2-f][1,2,4]triazine-7-carbonitrile] belongs 2.68 nM.

Take `N#CCNC1CCN(c2cc(C#N)cc(Nc3nc(NC4CC4)c4ncc(C#N)n4n3)c2Cl)CC1` [Example 141, 2-((2-chloro-5-cyano-3-(4-((cyanomethyl)amino)-1-piperidinyl)phenyl)amino)-4-(cyclopropylamino)imidazo [2,1-f][1,2,4]triazine-7-carbonitrile]: the IC50 amounted to 0.67 nM. `CC(C)(O)CNC1CCN(c2cc(C#N)cc(Nc3nc(NC4CC4)c4ncc(C#N)n4n3)c2Cl)CC1` [Example 143, 2-((2-chloro-5-cyano-3-(4-((2-hydroxy-2-methylpropyl)amino)-1-piperidinyl)phenyl)amino)-4-(cyclopropylamino)imidazo [2,1-f][1,2,4]triazine-7-carbonitrile]: the IC50 came out at 0.78 nM. Then `COC[C@H](O)CNC1CCN(c2cc(C#N)cc(Nc3nc(NC4CC4)c4ncc(C#N)n4n3)c2Cl)CC1` [Example 145, 2-((2-chloro-5-cyano-3-(4-(((2R)-2-hydroxy-3-methoxypropyl)amino)-1-piperidinyl)phenyl)amino)-4-(cyclopropylamino)imidazo [2,1-f][1,2,4]triazine-7-carbonitrile], with 5.48 nM; and `COC(=O)NC1CCN(c2cc(C#N)cc(Nc3nc(NC4CC4)c4ncc(C#N)n4n3)c2Cl)CC1` [Example 146, methyl (1-(2-chloro-5-cyano-3-((7-cyano-4-(cyclopropylamino)imidazo [2,1-f][1,2,4]triazin-2-yl)amino)phenyl)-4-piperidinyl)carbamate], with 1.19 nM. As to `N#Cc1cc(Nc2nc(NC3CC3)c3ncc(C#N)n3n2)c(Cl)c(N2CCC(N3CC(F)(F)C3)CC2)c1` [Example 147, 2-((2-chloro-5-cyano-3-(4-(3,3-difluoro-1-azetidinyl)-1-piperidinyl)phenyl)amino)-4-(cyclopropylamino)imidazo [2,1-f][1,2,4]triazine-7-carbonitrile], the IC50 worked out at 1.17 nM.
